Test results from ChEMBL document CHEMBL5126595, “Identification and anti-tumor evaluation of 3-acyl-indol-based 2,4-diarylaminopyrimidine analogues as potent ALK inhibitors capable of overcoming drug-resistant mutants” (Eur J Med Chem, 2022).
Activity calls are given as the source filed them. The calls are words filed in the database; no cut-off is given here.

Tests used:
NCI-H2228 [1] = assay: Induction of apoptosis in human NCI-H2228 cells assessed as viable cells at 100 nM incubated for 48 hrs by AnnexinV-FITC/propidium iodide staining based flow cytometry analysis (reference value: 92.3 %); assay type: functional; conditions: read-out: Activity
HCT-116 = assay: cells; conditions: Homo sapiens, HCT-116, 72 h
Description: Antiproliferative activity against human HCT-116 cells assessed as inhibition of cell growth incubated for 72 hrs by MTT assay

[2] = target: Epidermal growth factor receptor (Homo sapiens, UniProt P00533); assay: Inhibition of human EGFR (669 to 1210 residues) cytoplasmic domain expressed in baculovirus infected Sf21 cells incubated for 1 hrs in the presence of ATP by mobility shift assay
NCI-H2228 [3] = assay: Induction of apoptosis in human NCI-H2228 cells assessed as ruptured nuclei at 25 to 100 nM incubated for 48 hrs by Hoechst 33342 staining based fluorescence microscopic analysis; assay type: functional, cell-based; conditions: dose 25-100 nM
Hep 3B2 = assay: cells; conditions: Homo sapiens, Hep3B, 72 h
Description: Antiproliferative activity against human Hep3B cells assessed as inhibition of cell growth incubated for 72 hrs by MTT assay

NCI-H2228 [4] = assay: Induction of apoptosis in human NCI-H2228 cells assessed as necrotic cells at 100 nM incubated for 48 hrs by AnnexinV-FITC/propidium iodide staining based flow cytometry analysis (reference value: 0.55 %); assay type: functional
NCI-H2228 [5] = assay: Induction of apoptosis in human NCI-H2228 cells assessed as early apoptotic cells at 25 nM incubated for 48 hrs by AnnexinV-FITC/propidium iodide staining based flow cytometry analysis (reference value: 2.45 %); assay type: functional
NCI-H2228 [6] = assay: Induction of apoptosis in human NCI-H2228 cells assessed as orange red fluorescence at 25 to 100 nM incubated for 48 hrs by AO/EB staining based fluorescence microscopic analysis; assay type: functional, cell-based; conditions: dose 25-100 nM
NCI-H2228 [7] = assay: Induction of apoptosis in human NCI-H2228 cells assessed as viable cells at 25 nM incubated for 48 hrs by AnnexinV-FITC/propidium iodide staining based flow cytometry analysis (reference value: 92.3 %); assay type: functional; conditions: read-out: Activity
NCI-H2228 [8] = assay: Inhibition of colony formation in human NCI-H2228 cells assessed as reduction in colony area incubated for 3 day by crystal violet staining based assay; assay type: functional, cell-based; conditions: dose 25-100 nM, DDE = dose-dependent effect
[9] = Oral bioavailability in Sprague-Dawley rat at 10 mg/kg by LC-MS/MS analysis; assay type: ADME, organism-based; conditions: in vivo
BaF3 = assay: Antiproliferative activity IL3 […] Ba/F3 cells assessed as inhibition of cell growth incubated for 72 hrs by MTT assay; assay type: functional, cell-based; conditions: Mus musculus, BaF3, 72 h
NCI-H2228 [10] = assay: Induction of cell cycle arrest in human NCI-H2228 cells assessed as decrease in G2 phase cells at 100 nM incubated for 48 hrs by PI/RNase staining based flow cytometry analysis (reference value: 15.38 %); assay type: functional; set-up: scale not given: the % may be the effect or the level left
[11] = target: T1, ALK tyrosine kinase receptor (Homo sapiens, UniProt Q9UM73); assay: Inhibition of ALK downstream signalling in human NCI-H2228 cells assessed as reduction in phosphorylated ERK level measured after 24 hrs by Western blot analysis; assay type: cell-based; conditions: dose 25-100 nM, DDE = dose-dependent effect
NCI-H2228 [12] = assay: Inhibition of cell migration in human NCI-H2228 cells at 10 nM measured at 48 hrs by inverted microscopic based cell scratch assay relative to control; assay type: functional
[13] = Antiproliferative activity […] EML4-ALK-L1196M cells assessed as inhibition of cell growth incubated for 72 hrs by MTT assay; assay type: functional, cell-based
NCI-H2228 [14] = assay: Inhibition of cell migration in human NCI-H2228 cells measured at 24 to 48 hrs by inverted microscopic based cell scratch assay; assay type: functional; conditions: dose 2.5-10 nM, time 24-48 hrs, DDE = dose-dependent effect
NCI-H2228 [15] = assay: Induction of cell cycle arrest in human NCI-H2228 cells assessed as increase in G1 phase cells at 25 nM incubated for 48 hrs by PI/RNase staining based flow cytometry analysis (reference value: 49.72 %); assay type: functional
NCI-H2228 [16] = assay: Antitumor activity against human NCI-H2228 cells xenografted in BALB/c nude mouse assessed as tumor regression at 25 mg/kg, IG administered every 2 days for 4 times; assay type: functional, organism-based; conditions: time 8.0 day
NCI-H2228 [17] = assay: Induction of apoptosis in human NCI-H2228 cells assessed as early apoptotic cells by measuring bright green fluorescence at 25 nM incubated for 48 hrs by AO/EB staining based fluorescence microscopic analysis; assay type: functional, cell-based
NCI-H2228 [18] = assay: Induction of apoptosis in human NCI-H2228 cells assessed as late apoptotic cells at 25 nM incubated for 48 hrs by AnnexinV-FITC/propidium iodide staining based flow cytometry analysis (reference value: 4.72 %); assay type: functional
[19] = Antiproliferative activity against human HEK293T cells assessed as inhibition of cell growth incubated for 72 hrs by MTT assay; assay type: toxicity, cell-based, HEK-293T
[20] = Antiproliferative activity against human HELF cells assessed as inhibition of cell growth incubated for 72 hrs by MTT assay; assay type: toxicity, cell-based
[21] = target: T1, ALK tyrosine kinase receptor; assay: Inhibition of ALK downstream signalling in human NCI-H2228 cells assessed as reduction in ERK level measured after 24 hrs by Western blot analysis; assay type: cell-based; conditions: dose 25-100 nM, DDE = dose-dependent effect
NCI-H2228 [22] = assay: Antiproliferative activity against EML4-ALK positive human NCI-H2228 cells assessed as inhibition of cell growth incubated for 72 hrs by MTT assay; assay type: functional, cell-based; conditions: NCI-H2228, 72 h
NCI-H2228 [23] = assay: Induction of apoptosis in human NCI-H2228 cells assessed as early apoptotic cells at 50 nM incubated for 48 hrs by AnnexinV-FITC/propidium iodide staining based flow cytometry analysis (reference value: 2.45 %); assay type: functional
[24] = Half-life in Sprague-Dawley rat at 2 mg/kg, iv by LC-MS/MS analysis; assay type: ADME, organism-based; conditions: in vivo
NCI-H2228 [25] = assay: Inhibition of cell migration in human NCI-H2228 cells at 10 nM measured at 24 hrs by inverted microscopic based cell scratch assay relative to control; assay type: functional
NCI-H2228 [26] = assay: Induction of apoptosis in human NCI-H2228 cells assessed as total apoptotic cells at 100 nM incubated for 48 hrs by AnnexinV-FITC/propidium iodide staining based flow cytometry analysis; assay type: functional
NCI-H3122 = assay: Antiproliferative activity against EML4-ALK positive human NC-H3122 cells assessed as inhibition of cell growth incubated for 72 hrs by MTT assay; assay type: functional, cell-based; conditions: NCI-H3122, 72 h
[27] = target: ALK tyrosine kinase receptor (Homo sapiens, UniProt Q9UM73, G1202R); assay: Inhibition of N-terminal GST-tagged human ceritinib-resistant ALK G1202R mutant (1058 to 1620 residues) cytoplasmic domain expressed in baculovirus infected Sf21 cells incubated for 1 hrs in the presence of ATP by mobility shift assay
[28] = MRT in Sprague-Dawley rat at 2 mg/kg, iv by LC-MS/MS analysis; assay type: ADME, organism-based; conditions: in vivo
PC-3 = assay: Antiproliferative activity against human PC-3 cells assessed as inhibition of cell growth incubated for 72 hrs by MTT assay; assay type: functional, cell-based; conditions: PC-3, 72 h
MCF7 = assay: cells; conditions: Homo sapiens, MCF7, 72 h
Description: Antiproliferative activity against human MCF7 cells assessed as inhibition of cell growth incubated for 72 hrs by MTT assay

[29] = Half-life in Sprague-Dawley rat at 10 mg/kg, po by LC-MS/MS analysis; assay type: ADME, organism-based; conditions: in vivo
[30] = Antiproliferative activity […] EML4-ALK-G1202R cells assessed as inhibition of cell growth incubated for 72 hrs by MTT assay; assay type: functional, cell-based
[31] = target: T1, ALK tyrosine kinase receptor; assay: Inhibition of ALK phosphorylation in human NCI-H2228 cells measured after 24 hrs by Western blot analysis; assay type: cell-based; conditions: dose 25-100 nM, DDE = dose-dependent effect

T1 sequence (Q9UM73 19-1620 limits assumed): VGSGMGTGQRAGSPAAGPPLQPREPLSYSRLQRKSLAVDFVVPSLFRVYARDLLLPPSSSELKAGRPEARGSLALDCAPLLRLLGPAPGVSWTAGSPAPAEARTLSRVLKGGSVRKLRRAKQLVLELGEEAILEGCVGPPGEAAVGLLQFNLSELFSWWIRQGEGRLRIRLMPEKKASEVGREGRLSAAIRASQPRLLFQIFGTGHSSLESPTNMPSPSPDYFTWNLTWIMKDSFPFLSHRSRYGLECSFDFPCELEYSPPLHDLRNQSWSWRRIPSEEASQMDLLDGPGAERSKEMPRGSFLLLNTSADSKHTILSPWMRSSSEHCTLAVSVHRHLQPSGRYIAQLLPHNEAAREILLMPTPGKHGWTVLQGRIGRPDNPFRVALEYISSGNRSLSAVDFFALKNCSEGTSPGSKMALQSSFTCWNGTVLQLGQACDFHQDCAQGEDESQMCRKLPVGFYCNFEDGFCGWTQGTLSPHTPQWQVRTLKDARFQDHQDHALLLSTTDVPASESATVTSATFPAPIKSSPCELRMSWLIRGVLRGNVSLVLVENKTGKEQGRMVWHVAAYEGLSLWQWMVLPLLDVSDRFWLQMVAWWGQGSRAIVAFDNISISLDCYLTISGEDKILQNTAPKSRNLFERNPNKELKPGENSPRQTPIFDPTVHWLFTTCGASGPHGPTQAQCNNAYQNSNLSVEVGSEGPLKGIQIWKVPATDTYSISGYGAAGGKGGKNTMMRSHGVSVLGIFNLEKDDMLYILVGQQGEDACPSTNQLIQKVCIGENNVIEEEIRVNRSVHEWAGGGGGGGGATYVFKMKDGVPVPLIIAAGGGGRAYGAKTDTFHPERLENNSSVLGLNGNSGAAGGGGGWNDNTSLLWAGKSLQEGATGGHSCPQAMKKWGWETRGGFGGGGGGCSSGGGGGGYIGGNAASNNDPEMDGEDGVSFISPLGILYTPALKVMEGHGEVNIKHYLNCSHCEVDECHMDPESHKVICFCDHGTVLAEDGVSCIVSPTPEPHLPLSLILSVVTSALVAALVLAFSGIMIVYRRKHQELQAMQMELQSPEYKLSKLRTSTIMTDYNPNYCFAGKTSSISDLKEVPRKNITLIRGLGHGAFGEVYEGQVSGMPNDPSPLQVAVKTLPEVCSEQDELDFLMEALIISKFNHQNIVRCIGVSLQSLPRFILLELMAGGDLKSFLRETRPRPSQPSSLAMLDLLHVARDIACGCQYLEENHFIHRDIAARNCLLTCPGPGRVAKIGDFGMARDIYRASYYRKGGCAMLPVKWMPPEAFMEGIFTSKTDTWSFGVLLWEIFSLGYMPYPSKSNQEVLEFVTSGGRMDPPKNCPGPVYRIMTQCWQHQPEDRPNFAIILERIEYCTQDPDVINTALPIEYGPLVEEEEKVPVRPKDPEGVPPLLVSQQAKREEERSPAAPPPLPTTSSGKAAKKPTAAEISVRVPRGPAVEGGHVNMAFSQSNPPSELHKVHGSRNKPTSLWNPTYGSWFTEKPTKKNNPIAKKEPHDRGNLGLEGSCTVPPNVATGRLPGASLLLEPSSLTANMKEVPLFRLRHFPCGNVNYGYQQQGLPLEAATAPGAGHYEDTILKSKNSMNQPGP
ALK tyrosine kinase receptor (Homo sapiens, UniProt Q9UM73, G1202R), sequence (Q9UM73 19-1620 G1202R limits assumed): as the sequence (Q9UM73 19-1620 limits assumed) above, with G1184R counted along it
Epidermal growth factor receptor, sequence (P00533 whole entry, the tested form may be a part): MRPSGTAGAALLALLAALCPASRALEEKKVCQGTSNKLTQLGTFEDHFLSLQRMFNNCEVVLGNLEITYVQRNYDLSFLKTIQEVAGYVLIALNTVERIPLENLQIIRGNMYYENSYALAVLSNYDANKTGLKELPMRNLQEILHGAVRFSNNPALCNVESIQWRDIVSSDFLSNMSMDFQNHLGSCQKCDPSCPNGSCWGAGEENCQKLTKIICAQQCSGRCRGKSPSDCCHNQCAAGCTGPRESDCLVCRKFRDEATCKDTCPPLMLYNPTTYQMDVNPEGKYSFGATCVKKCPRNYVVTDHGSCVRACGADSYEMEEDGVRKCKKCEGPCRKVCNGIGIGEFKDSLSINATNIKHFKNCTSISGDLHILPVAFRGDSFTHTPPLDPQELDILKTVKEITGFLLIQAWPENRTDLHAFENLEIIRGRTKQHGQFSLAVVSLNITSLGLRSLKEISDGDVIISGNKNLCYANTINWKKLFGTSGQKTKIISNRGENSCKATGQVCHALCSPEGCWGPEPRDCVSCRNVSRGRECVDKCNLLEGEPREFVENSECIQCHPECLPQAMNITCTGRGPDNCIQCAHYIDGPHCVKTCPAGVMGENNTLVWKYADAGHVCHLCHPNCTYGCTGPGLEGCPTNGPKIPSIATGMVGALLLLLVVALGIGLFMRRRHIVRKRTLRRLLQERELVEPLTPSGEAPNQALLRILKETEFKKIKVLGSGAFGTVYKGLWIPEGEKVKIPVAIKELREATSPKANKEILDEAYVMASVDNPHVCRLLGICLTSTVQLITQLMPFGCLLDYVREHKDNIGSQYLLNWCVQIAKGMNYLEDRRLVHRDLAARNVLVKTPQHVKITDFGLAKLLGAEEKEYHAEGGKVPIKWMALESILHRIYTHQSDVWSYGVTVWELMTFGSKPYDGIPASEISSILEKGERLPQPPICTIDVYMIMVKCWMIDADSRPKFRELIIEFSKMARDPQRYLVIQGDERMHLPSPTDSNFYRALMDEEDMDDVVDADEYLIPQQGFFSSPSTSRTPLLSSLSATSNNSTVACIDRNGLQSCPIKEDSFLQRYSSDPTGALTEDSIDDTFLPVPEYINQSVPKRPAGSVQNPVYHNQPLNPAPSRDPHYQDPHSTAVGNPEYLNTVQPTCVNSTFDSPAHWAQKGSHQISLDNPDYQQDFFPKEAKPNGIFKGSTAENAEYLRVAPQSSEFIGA

CNC(=O)c1ccccc1Nc1nc(Nc2ccc3c(C(=O)N(C)C)c(C)[nH]c3c2)ncc1Cl
viability at 0.1 µM (NCI-H2228 [1]): 68.6% | IC50 (HCT-116): 1340 nM | IC50 [2]: > 1000 nM | Activity (NCI-H2228 [3]): Active | IC50 (Hep 3B2): 59 nM | Activity (NCI-H2228 [4]): 1.71% | Activity (NCI-H2228 [5]): 3.73% | Activity (NCI-H2228 [6]): Active | viability at 0.025 µM (NCI-H2228 [7]): 84.1% | inhibition (NCI-H2228 [8]): Dde | bioavailability [9]: 38.2% | IC50 (BaF3): > 1000 nM | Activity (NCI-H2228 [10]): 12.18% | inhibition [11]: Dde | inhibition at 0.01 µM (NCI-H2228 [12]): 4.5% | IC50 [13]: 21 nM | inhibition (NCI-H2228 [14]): Dde | Activity (NCI-H2228 [15]): 53.03% | Activity (NCI-H2228 [16]): Active | Activity (NCI-H2228 [17]): Active | Activity (NCI-H2228 [18]): 10.5% | IC50 at 72 h [19]: > 10000 nM | IC50 at 72 h [20]: > 10000 nM | inhibition [21]: Dde | IC50 (NCI-H2228 [22]): 37 nM | Activity (NCI-H2228 [23]): 7.44% | half-life [24]: 2.5 h | inhibition at 0.01 µM (NCI-H2228 [25]): 3.6% | Activity (NCI-H2228 [26]): 31.7% | IC50 (NCI-H3122): 27 nM | IC50 [27]: 2.9 nM | MRT [28]: 3.5 h | IC50 (PC-3): 1380 nM | IC50 (MCF7): 2160 nM | half-life [29]: 4.1 h | IC50 [30]: 15 nM | inhibition [31]: Dde
